Data on eight molecules can be found in patent US9744150B2, “Suspension containing micronized benzoyl peroxide” (Dow Pharmaceutical Sciences Inc., priority 2009, dated 2017).

The data set in a line: surface tension by Du Noüy ring method, Krüss K20 EasyDyne tensiometer. The following applies: for Surface tension: room temperature. The class given is physicochemical. The protocol:
As used herein, the term “surface tension” refers to the force required to increase the unit area of a surface of a liquid or of an interface between two liquids or between a liquid and a gas, generally stated in units of dynes/cm. Surface tensions described herein are measured by the Du Noüy ring method utilizing an EasyDyne tensiometer model K20 marketed by Krüss USA, Matthews, N.C.
Surface tension of a fluid containing water was determined prior to and after mixing with various concentrations of various water soluble organic solvents in water. […] The study was performed at room temperature utilizing a Kruss Surface Tensiometer, Model K20 EasyDyne (Kruss USA, Matthews, N.C.) and the results are shown in Table 4. Values for surface tension are in dynes/cm.

Regarding `OCCCO` [1,3-Propanediol, 1,3-propanediol], the Surface tension (1.0 % w/w solvent in water) is on record as 69.8 dynes/cm; the Surface tension (2.5 % w/w solvent in water) turned out to be 68.1 dynes/cm; the Surface tension (5 % w/w solvent in water) is recorded as 64.6 dynes/cm; the Surface tension (7.5 % w/w solvent in water) is on record as 64.4 dynes/cm; the Surface tension (10 % w/w solvent in water) is reported as 61.2 dynes/cm; the Surface tension (12.5 % w/w solvent in water) stood at 61.1 dynes/cm. The Surface tension reads like this: (15.0 % w/w solvent in water) 61.0 dynes/cm; (17.5 % w/w solvent in water) 58.9 dynes/cm; (20 % w/w solvent in water) 60.4 dynes/cm; (22.5 % w/w solvent in water) 58.2 dynes/cm; (25 % w/w solvent in water) 58.3 dynes/cm.

Consider `CO[C@H]1CO[C@H]2[C@@H]1OC[C@H]2OC` [Dimethyl Isosorbide, dimethyl isosorbide], for which the Surface tension reads like this: (1.0 % w/w solvent in water) 66.0 dynes/cm; (2.5 % w/w solvent in water) 61.7 dynes/cm; (5 % w/w solvent in water) 52.8 dynes/cm; (7.5 % w/w solvent in water) 52.1 dynes/cm; (10 % w/w solvent in water) 47.9 dynes/cm; (12.5 % w/w solvent in water) 46.4 dynes/cm. Moreover, the Surface tension (15.0 % w/w solvent in water) amounted to 43.5 dynes/cm; the Surface tension (17.5 % w/w solvent in water) stood at 41.9 dynes/cm; the Surface tension (20 % w/w solvent in water) is on record as 38.6 dynes/cm; the Surface tension (22.5 % w/w solvent in water) came out at 40.5 dynes/cm; the Surface tension (25 % w/w solvent in water) is on record as 41.7 dynes/cm; the Surface tension (100 % w/w solvent) amounted to 39.3 dynes/cm.

As for `CCO` [Ethanol (200 proof), ethanol], the Surface tension (1.0 % w/w solvent in water) is 67.4 dynes/cm; the Surface tension (2.5 % w/w solvent in water) came out at 62.0 dynes/cm; the Surface tension (5 % w/w solvent in water) is reported as 55.9 dynes/cm; the Surface tension (7.5 % w/w solvent in water) came to 51.4 dynes/cm; the Surface tension (10 % w/w solvent in water) is on record as 47.8 dynes/cm; the Surface tension (12.5 % w/w solvent in water) was 44.6 dynes/cm. The Surface tension runs as follows: (15.0 % w/w solvent in water) 42.2 dynes/cm; (17.5 % w/w solvent in water) 40.2 dynes/cm; (20 % w/w solvent in water) 38.0 dynes/cm; (22.5 % w/w solvent in water) 36.6 dynes/cm; (25 % w/w solvent in water) 34.9 dynes/cm; (100 % w/w solvent) 22.3 dynes/cm.

Molecule `CCOCCOCCO` [Ethoxy Diglycol NF, ethoxydiglycol] returned a Surface tension (1.0 % w/w solvent in water) of 66.2 dynes/cm; a Surface tension (2.5 % w/w solvent in water) of 62.5 dynes/cm; a Surface tension (5 % w/w solvent in water) of 56.8 dynes/cm; a Surface tension (7.5 % w/w solvent in water) of 55.3 dynes/cm; a Surface tension (10 % w/w solvent in water) of 53.1 dynes/cm; a Surface tension (12.5 % w/w solvent in water) of 50.4 dynes/cm. For the same molecule, the Surface tension reads like this: (15.0 % w/w solvent in water) 49.7 dynes/cm; (17.5 % w/w solvent in water) 47.6 dynes/cm; (20 % w/w solvent in water) 43.2 dynes/cm; (22.5 % w/w solvent in water) 43.1 dynes/cm; (25 % w/w solvent in water) 43.8 dynes/cm; (100 % w/w solvent) 32.0 dynes/cm.

Turning to `OCC(O)CO` [Glycerin USP, glycerin], the Surface tension was 69.8 dynes/cm (25 % w/w solvent in water), 68.9 dynes/cm (50 % w/w solvent in water), 66.4 dynes/cm (75 % w/w solvent in water) and 62.0 dynes/cm (100 % w/w solvent). For the setting “by itself, at concentrations of 75% or less”, the “suitability for the present method” value is listed as “not suitable”.

Take `CC(C)O` [Isopropyl Alcohol, isopropyl alcohol]: the Surface tension reads like this: (1.0 % w/w solvent in water) 62.1 dynes/cm; (5 % w/w solvent in water) 47.3 dynes/cm; (7.5 % w/w solvent in water) 42.0 dynes/cm; (10 % w/w solvent in water) 38.6 dynes/cm; (12.5 % w/w solvent in water) 35.7 dynes/cm; (15.0 % w/w solvent in water) 33.1 dynes/cm. The Surface tension is given as 31.1 dynes/cm (17.5 % w/w solvent in water); 29.5 dynes/cm (20 % w/w solvent in water); 28.1 dynes/cm (22.5 % w/w solvent in water); 27.3 dynes/cm (25 % w/w solvent in water); 21.1 dynes/cm (100 % w/w solvent).

Take `CC1COC(=O)O1` (stereo not shown) [Propylene Carbonate, propylene carbonate]: the Surface tension amounted to 68.5 dynes/cm (1.0 % w/w solvent in water); 63.8 dynes/cm (2.5 % w/w solvent in water); 56.8 dynes/cm (5 % w/w solvent in water); 49.6 dynes/cm (7.5 % w/w solvent in water); 45.9 dynes/cm (10 % w/w solvent in water); 46.5 dynes/cm (12.5 % w/w solvent in water). For the same molecule, the Surface tension runs as follows: (15.0 % w/w solvent in water) 44.1 dynes/cm; (17.5 % w/w solvent in water) 43.5 dynes/cm.

Molecule `CC(O)CO` (stereo not shown) [Propylene Glycol USP, propylene glycol] returned a Surface tension (1.0 % w/w solvent in water) of 70.8 dynes/cm; a Surface tension (2.5 % w/w solvent in water) of 68.7 dynes/cm; a Surface tension (5 % w/w solvent in water) of 65.9 dynes/cm; a Surface tension (7.5 % w/w solvent in water) of 63.6 dynes/cm; a Surface tension (10 % w/w solvent in water) of 61.7 dynes/cm; a Surface tension (12.5 % w/w solvent in water) of 59.7 dynes/cm. For the same molecule, the Surface tension amounted to 58.3 dynes/cm (15.0 % w/w solvent in water); 56.5 dynes/cm (17.5 % w/w solvent in water); 55.2 dynes/cm (20 % w/w solvent in water); 54.1 dynes/cm (22.5 % w/w solvent in water); 52.8 dynes/cm (25 % w/w solvent in water); 50.6 dynes/cm (30 % w/w solvent in water). For the same molecule, the Surface tension (100 % w/w solvent) stood at 36.1 dynes/cm. The “concentration suitable for the invention (surface tension less than 64 dynes/cm)” value (solvent in water, from the data of Table 4) was no less than 7.5%.
